Measured values: patent US20030036082A1, “Screening methods” (priority 2001, published 2003)

What was measured:
[1] = test system: total DGK activity; experiment: Reduction of total DGK activity by DGK inhibitor (data not shown); type: biochemical
[2] = test system: epitrochlearis muscle from Wistar rats; experiment: 3-O-methyl-glucose transport in isolated epitrochlearis muscle; type: cell-based; conditions: 25 μM inhibitor, Wistar rat epitrochlearis muscle
Protocol: The influence of total DGK activity on insulin-stimulated glucose uptake was assessed by measurements on epitrochlearis muscle from Wistar rats using a specific inhibitor for diacylglycerol kinase, DGK inhibitor II™ (Jang, Y. et al. (2000) Biochem. Pharmacol. 59: 763-772).
Media were prepared from a pre-gassed (95% O2/5% CO2) Krebs Henseleit buffer (KHB) containing 5 mM glucose and 0.1% BSA (RIA grade). Epitrochlearis muscles were incubated (20 min) in a shaking water bath (30° C.) in 2 ml of KHB, supplemented with 20 mM mannitol, with or without 2.4 nM insulin and 25 μM DGK-II inhibitor (Calbiochem). Muscles were transferred to KHB containing 8 mM 3-O-methyl[^3H]glucose (438 μCi/mmol; 1 Ci=[…]) and 12 mM [^14C]mannitol (42 μCi/mmol) and incubated (10 min) with or without insulin and 25 μM of DGKII inhibitor. 3-O-methyl-glucose transport activity was assessed as described (Wallberg-Henriksson et al. (1987) J. Biol. Chem. 262: 7665-7671) and expressed as micromoles per milliliter of intracellular water per hour.

[3] = diabetic GK rats, treatment with phlorizin; cited from earlier work
[4] = test system: total DGK activity; experiment: Octyl glucoside/PS mixed-micelle assay of total DGK activity in gastrocnemius muscle after phlorizin treatment; type: in vivo; conditions: GK rats, phlorizin 0.8 g/kg body wt per day s.c. for 4 weeks
Protocol: (§1) In order to investigate the influence of DGKδ on insulin-stimulated glucose uptake in more detail, DGKδ expression studies and measurements of DGK activity were performed in GK rats, a lean animal model for type 2 diabetes (Goto et al., pp. 301-303 in: Frontiers in Diabetes Research (Shafrir E., Renold, A E, Eds.) London, John Libbey, 1988). Male GK rats (200-250 g) were obtained from the Karolinska Institute, Sweden. Weight-matched male Wistar rats served as controls (B&K Universal, Sollentuna, Sweden). All rats were maintained under a 12-hour light/dark cycle, and had free access to water and standard rodent diet. […]
Portions of the gastrocnemius skeletal muscle (approximately 30 mg) were crushed in liquid nitrogen, homogenized by sonication in ice-cold buffer containing 20 mM Tris-HCl, pH 7.5, 250 mM sucrose, 1 mM EDTA, 1 mM EGTA, 1 mM dithiothreitol (DTT), 1 mM PMSF, a 20 μg/ml concentration of each: leupeptin, pepstatin, aprotinin, and soybean trypsin inhibitor and centrifuged at 12,000×g for 10 min at 4° C. The supernatant was collected and protein concentration was determined.
An octyl glucoside/PS mixed-micelle assay of total DGK activity was performed using [γ-^32P] […] The region containing phosphatidic acid was quantified by phosphoimaging and densitometry.

[5] = test system: DGKδ; experiment: DGKδ protein expression in gastrocnemius skeletal muscle by immunoblotting after phlorizin treatment; type: in vivo; conditions: GK rats, phlorizin 0.8 g/kg body wt per day s.c. for 4 weeks
Protocol: as §1, with “diet. Four groups of animals were studied: vehicle-treated Wistar rats (n=5), phlorizin-treated Wistar rats (n=6), vehicle-treated GK-rats (n=6) and phlorizin-treated GK-rats (n=6).” for “diet.”
Portions of the gastrocnemius skeletal muscle (approximately 30 mg) were crushed in liquid N2 and then lysed in ice-cold buffer (137 mM NaCl, 2.7 mM KCl, 1 mM MgCl2, 0.5 mM Na3VO4, 1% Triton X-100, 10% glycerol, 20 mM Tris pH 8.0, […] leupeptin, 0.2 mM PMSF, 10 mM NaF, 10 μg/ml aprotinin). […] The supernatant was removed and protein concentration was determined. […] Proteins were visualized by ECL and quantified by densitometric scanning.

Row | Compound | reduction of total DGK activity [1] [%] | decrease of insulin-stimulated glucose transport ([2]; 2.4 nM insulin) | basal glucose transport ([2]; without insulin) | blood glucose levels [3] | total DGK activity in muscle [4] | DGK content in the muscle (DGKδ protein level, immunoblot densitometry) [5]
1 | O=c1c2ccccc2[nH]c(=S)n1CCN1CCC(=C(c2ccc(F)cc2)c2ccc(F)cc2)CC1 [DGK inhibitor II™] | 70 | approximately 30% | not affected | – | – | –
2 | O=C(CCc1ccc(O)cc1)c1c(O)cc(O)cc1O[C@@H]1O[C@H](CO)[C@@H](O)[C@H](O)[C@H]1O [phlorizin, Phlorizin] | – | – | – | brings glucose levels back to normal values | increase of total DGK activity in GK rat muscle upon phlorizin treatment to a level measured in muscle from healthy Wistar rats | increase of DGK content in the muscle to approximately the same values as measured in healthy Wistar rats
